According to patent US6855843B2, “Inhibitors of α4 mediated cell adhesion” (Tanabe Seiyaku Co., Ltd., priority 1998, dated 2005):

Columns and labels:
[1] = target: T1, α4β7 (adhesion of RPMI cells to CS-1) (Homo sapiens, UniProt P13612+P26010); assay: RPMI-CS-1 cell adhesion assay; type: cell-based; details: adhesion of RPMI B-cell line (expresses α4β7) to CS-1 peptide coated microwells; read-out: RPMI-CS-1 IC50 value range
T1 construct: endogenous in cells
T1 sequence (P13612 34-1032): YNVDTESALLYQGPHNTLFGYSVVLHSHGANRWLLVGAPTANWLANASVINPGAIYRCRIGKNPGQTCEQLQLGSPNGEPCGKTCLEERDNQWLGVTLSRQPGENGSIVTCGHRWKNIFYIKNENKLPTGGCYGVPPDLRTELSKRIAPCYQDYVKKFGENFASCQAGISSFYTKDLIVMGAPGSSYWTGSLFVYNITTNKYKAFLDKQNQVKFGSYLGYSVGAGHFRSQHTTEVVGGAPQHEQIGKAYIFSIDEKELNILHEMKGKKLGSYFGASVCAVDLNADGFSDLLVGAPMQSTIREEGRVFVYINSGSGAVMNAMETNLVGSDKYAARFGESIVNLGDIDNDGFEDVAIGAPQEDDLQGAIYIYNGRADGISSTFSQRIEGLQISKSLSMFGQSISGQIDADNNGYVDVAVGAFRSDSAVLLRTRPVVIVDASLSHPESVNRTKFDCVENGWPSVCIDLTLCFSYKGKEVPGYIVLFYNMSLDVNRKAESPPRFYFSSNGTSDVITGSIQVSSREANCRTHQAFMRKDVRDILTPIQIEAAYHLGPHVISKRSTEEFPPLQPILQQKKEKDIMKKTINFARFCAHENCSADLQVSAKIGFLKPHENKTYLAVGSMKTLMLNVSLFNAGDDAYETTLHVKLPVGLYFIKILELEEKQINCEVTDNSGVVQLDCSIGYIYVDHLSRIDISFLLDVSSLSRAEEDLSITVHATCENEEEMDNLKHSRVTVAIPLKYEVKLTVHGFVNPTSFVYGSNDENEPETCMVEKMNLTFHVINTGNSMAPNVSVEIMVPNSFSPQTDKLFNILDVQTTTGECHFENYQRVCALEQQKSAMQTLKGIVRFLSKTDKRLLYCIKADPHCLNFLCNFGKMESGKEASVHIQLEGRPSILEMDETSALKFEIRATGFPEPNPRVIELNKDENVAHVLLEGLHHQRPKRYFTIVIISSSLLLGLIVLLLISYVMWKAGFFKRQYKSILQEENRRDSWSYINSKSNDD
T1 sequence (P26010 20-798): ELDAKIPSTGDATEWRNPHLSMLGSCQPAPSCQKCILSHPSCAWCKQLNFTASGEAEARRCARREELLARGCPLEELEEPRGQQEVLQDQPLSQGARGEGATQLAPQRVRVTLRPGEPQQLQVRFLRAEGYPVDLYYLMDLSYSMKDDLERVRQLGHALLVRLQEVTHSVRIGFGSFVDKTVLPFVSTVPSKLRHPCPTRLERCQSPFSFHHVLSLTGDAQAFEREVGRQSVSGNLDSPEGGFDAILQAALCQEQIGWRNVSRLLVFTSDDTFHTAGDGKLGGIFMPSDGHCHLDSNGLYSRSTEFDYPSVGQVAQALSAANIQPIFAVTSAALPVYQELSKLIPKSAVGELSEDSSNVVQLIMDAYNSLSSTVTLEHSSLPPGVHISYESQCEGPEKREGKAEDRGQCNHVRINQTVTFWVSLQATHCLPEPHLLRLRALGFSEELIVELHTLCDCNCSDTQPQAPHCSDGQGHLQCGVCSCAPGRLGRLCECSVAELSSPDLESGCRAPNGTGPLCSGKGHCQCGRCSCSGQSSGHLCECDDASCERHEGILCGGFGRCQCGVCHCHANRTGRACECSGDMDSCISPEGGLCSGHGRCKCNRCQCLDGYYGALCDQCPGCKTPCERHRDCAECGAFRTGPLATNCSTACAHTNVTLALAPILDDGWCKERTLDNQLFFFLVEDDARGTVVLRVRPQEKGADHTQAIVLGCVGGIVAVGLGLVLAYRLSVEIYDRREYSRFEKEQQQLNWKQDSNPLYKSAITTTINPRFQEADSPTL

| SMILES | IC50 [1] | melting point |
| --- | --- | --- |
| COc1cccc(OC)c1-c1ccc(C[C@H](NC(=O)c2c(Cl)cccc2Cl)C(=O)O)cc1NC(C)=O [Example 297, N-(2,6-Dichlorobenzoyl)-4-(2,6-dimethoxyphenyl)-3-acetylamino-L-phenylalanine] | < 300 nM | 142 to 144 °C |
| COc1cc(C(=O)NCCCO)cc(OC)c1-c1ccc(C[C@H](NC(=O)c2c(Cl)cccc2Cl)C(=O)O)cc1 [Example 169] | < 300 nM | 222 to 223 °C |
| COc1cccc(OC)c1-c1ccc(C[C@H](NC(=O)c2c(Cl)cc(-c3nccs3)cc2Cl)C(=O)O)cc1 [Example 306, N-[4-(1,3-thiazol-2-yl)-2,6-dichlorobenzoyl]-4-(2,6-dimethoxyphenyl)-L-phenylalanine] | < 300 nM | 141.9 °C |
| CCOC(=O)Nc1cc(C[C@H](NC(=O)c2c(Cl)cccc2Cl)C(=O)O)ccc1-c1c(OC)cccc1OC [Example 299] | < 300 nM | 216 to 217 °C |
| CCCCCCC(=O)c1cc(C[C@H](NC(=O)c2c(Cl)cccc2Cl)C(=O)O)ccc1-c1ccccc1OC [Example 339] | < 300 nM | 86 to 88 °C |

Further lines, results first:

| IC50 [1] | melting point | SMILES |
| --- | --- | --- |
| < 300 nM | 117 to 119 °C | CCC(O)c1cc(C[C@H](NC(=O)c2c(Cl)cccc2Cl)C(=O)O)ccc1-c1ccccc1OC (stereo partly drawn) [Example 341] |
| < 300 nM | 158 to 159 °C | COc1cccc(OCCO)c1-c1ccc(C[C@H](NC(=O)c2c(Cl)cccc2Cl)C(=O)O)cc1 [Example 227, N-(2,6-Dichlorobenzoyl)-4-[6-methoxy-2-(2-hydroxyethoxy)phenyl]-L-phenylalanine] |
| < 300 nM | 124 to 125 °C | O=C(N[C@@H](Cc1ccc(-c2c(OCCO)cccc2OCCO)cc1)C(=O)O)c1c(Cl)cccc1Cl [Example 229] |
| < 300 nM | 164 to 165 °C | COc1ccc(O)c(OC)c1-c1ccc(C[C@H](NC(=O)c2c(Cl)cccc2Cl)C(=O)O)cc1 [Example 175, N-(2,6-Dichlorobenzoyl)-4-(2,6-dimethoxy-3-hydroxyphenyl)-L-phenylalanine] |
| < 300 nM | 214 to 215 °C | O=C(N[C@@H](Cc1ccc(-c2cccc3c2OCCC3)cc1)C(=O)O)c1c(Cl)cccc1Cl [Example 328] |
| 300 to 1000 nM | 167 to 168 °C | COCCOc1ccc2c(c1-c1ccc(C[C@H](NC(=O)c3c(Cl)cccc3Cl)C(=O)O)cc1)OCO2 [Example 233, N-(2,6-Dichlorobenzoyl)-4-[2,3-methylenedioxy-6-(2-methoxyethoxy)phenyl]-L-phenylalanine] |
| < 300 nM | 262 to 263 °C (dec.) | C=CCNc1cc(OC)c(-c2ccc(C[C@H](NC(=O)c3c(Cl)cccc3Cl)C(=O)O)cc2)c(OC)c1 [Example 156, N-(2,6-Dichlorobenzoyl)-4-(4-allylamino-2,6-dimethoxyphenyl)-L-phenylalanine] |
